Experiment [1] concerns Mus musculus. Description: Ataxia (time on rotaing rod) in mice after administration (0.3 mg/kg) using standard Rotarod assay. It is filed as functional. A general note: In the rotarod test animals must keep their balance on a rotating rod.
For experiment [2], the system named is Mus musculus. In words: Anxiolytic activity (latency to fight) in mice after administration (3.0 mg/kg) using shock-induced aggression assay. It counts as functional.
Experiment [3] relates to Mus musculus. Description: Ataxia (time on rotaing rod) in mice after administration (3 mg/kg) using standard Rotarod assay. It counts as functional.
The test system of experiment [4] is Mus musculus. Description: Anxiolytic activity (latency to fight) in mice after administration (0.3 mg/kg) using shock-induced aggression assay. It is filed as functional.
The target in experiment [5] is T1, 5-hydroxytryptamine receptor 2C (Homo sapiens, UniProt P28335).
T1 sequence (P28335 whole entry): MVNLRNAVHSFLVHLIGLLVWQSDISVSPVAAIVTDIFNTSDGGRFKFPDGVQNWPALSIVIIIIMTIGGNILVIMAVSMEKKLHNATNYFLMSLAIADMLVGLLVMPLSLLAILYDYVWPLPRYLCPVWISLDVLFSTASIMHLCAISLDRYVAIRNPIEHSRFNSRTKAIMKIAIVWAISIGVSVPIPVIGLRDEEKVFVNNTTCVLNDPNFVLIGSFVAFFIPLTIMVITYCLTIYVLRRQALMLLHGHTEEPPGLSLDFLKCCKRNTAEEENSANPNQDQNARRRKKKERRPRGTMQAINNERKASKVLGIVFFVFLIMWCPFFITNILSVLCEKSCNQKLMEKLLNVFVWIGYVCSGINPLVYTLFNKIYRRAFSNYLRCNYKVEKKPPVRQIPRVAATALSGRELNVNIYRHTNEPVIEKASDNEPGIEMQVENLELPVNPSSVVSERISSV
Description: Binding affinity against 5-hydroxytryptamine 2C receptor using [125I]DOI radioligand.

Experiment [6] concerns the target 5-hydroxytryptamine receptor 2A (Homo sapiens, UniProt P28223). Description: Binding affinity against 5-hydroxytryptamine 2A receptor using [125I]DOI radioligand.
The target in experiment [7] is Serotonin 2 receptors; 5-HT2a & 5-HT2c (Homo sapiens) (UniProt P28223+P28335). Description: Selectivity ratio of binding affinity of 5-hydroxytryptamine 2A receptor to that of 5-hydroxytryptamine 2C receptor. It counts as protein assay.
For experiment [8], the target named is T2, 5-hydroxytryptamine receptor 2C (Homo sapiens) (UniProt P28335).
T2 sequence (whole entry): T1 sequence (P28335 whole entry)
In words: Intrinsic efficacy against 5-hydroxytryptamine 2C receptor.

The target in experiment [9] is T1, 5-hydroxytryptamine receptor 2C. In words: Binding affinity of compound towards 5-hydroxytryptamine 2C receptor.
Experiment [10] concerns Mus musculus. In words: Ataxia (time on rotaing rod) in mice after administration (30 mg/kg) using standard Rotarod assay. It counts as functional.
Experiment [11] relates to Mus musculus. In words: Anxiolytic activity (latency to fight) in mice after administration (3 mg/kg) using shock-induced aggression assay. It is filed as functional.
For experiment [12], the system named is Mus musculus. Description: Anxiolytic activity (latency to fight) in mice after administration (30 mg/kg) using shock-induced aggression assay. It is filed as functional.

Chain of Serotonin 2 receptors; 5-HT2a & 5-HT2c (Homo sapiens) (P28223 whole entry, looked up, one chain of several): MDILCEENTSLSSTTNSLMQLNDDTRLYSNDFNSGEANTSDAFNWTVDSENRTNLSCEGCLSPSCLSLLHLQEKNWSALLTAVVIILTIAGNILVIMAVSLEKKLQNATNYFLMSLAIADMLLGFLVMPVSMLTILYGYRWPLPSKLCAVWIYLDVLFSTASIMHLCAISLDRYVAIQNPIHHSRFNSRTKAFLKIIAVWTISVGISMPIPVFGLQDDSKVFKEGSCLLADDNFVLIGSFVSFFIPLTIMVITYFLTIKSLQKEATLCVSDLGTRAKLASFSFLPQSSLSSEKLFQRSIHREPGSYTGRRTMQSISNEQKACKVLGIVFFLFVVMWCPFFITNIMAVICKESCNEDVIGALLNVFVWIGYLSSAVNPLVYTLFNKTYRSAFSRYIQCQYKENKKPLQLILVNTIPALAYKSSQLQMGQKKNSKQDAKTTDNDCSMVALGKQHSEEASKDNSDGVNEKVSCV
Chain of 5-hydroxytryptamine receptor 2A (P28223 whole entry): as the sequence (P28223 whole entry, looked up, one chain of several) above

Regarding `Cc1nnc2n1-c1ccc(Cl)cc1C(c1ccccc1)=NC2` [ALPRAZOLAM], the Latency in experiment [1] worked out at 74.2 s; in [2] it was 35.2 s; in experiment [3] it was 14.5 s; in experiment [4], 11.9 s.

As a reminder, the Ki is the equilibrium dissociation constant of an inhibitor or competing ligand from its target. Consider `COc1ccc(Cl)cc1-c1cc(Cl)cc2c1N1CCNCCC1C2` (configuration not stated), for which the Ki is 793 nM in experiment [5] and 756 nM in experiment [6]. For the same compound, the Selectivity ratio in [7] turned out to be 0.95.

As for `Clc1ccccc1-c1cccc2c1N1CCNCCC1C2` (configuration not stated), the values for the Ki in experiment [5] and in experiment [6] were 23 nM and 82 nM, respectively. Besides, the Selectivity ratio in experiment [7] amounted to 3.57.

Consider `CCOc1ccccc1-c1cc(Cl)cc2c1N1CCNCCC1C2` (stereo in doubt) [listing 1 of 2 here], for which the Ki worked out at 178 nM in [5] and 354 nM in experiment [6].

With `CCN1CCc2cc3ccccc3n2CC1`, the Intrinsic efficacy in [8] amounted to 66%. The Ki is 38 nM in [5] and 30 nM in experiment [6].

Turning to `CCOc1ccccc1-c1cccc2c1N1CCNCCC1C2` (single isomer, unassigned; (+)) [listing 1 of 2 here], the Ki amounted to 103 nM in experiment [5] and 458 nM in [6].

On to `CCOc1ccc(-c2cc(Cl)cc3c2N2CCNCCC2C3)cc1` (configuration not stated), for which the results for the Ki in experiment [5] and in [6] were 265 nM and 182 nM, respectively. Moreover, the Selectivity ratio in experiment [7] is 0.69.

Regarding `CCOc1ccccc1-c1cccc2c1N1CCNCCC1C2` (single isomer, unassigned; (-)) [listing 1 of 2 here], in experiment [7], the Selectivity ratio was found to be 5.

In the case of `c1ccc2c3c([nH]c2c1)CCNCC3`, the Intrinsic efficacy in [8] was determined as 66%. The values for the Ki in experiment [5] and in experiment [6] were 6.1 nM and 10 nM, respectively.

Take `CCOc1ccccc1-c1cccc2c1N1CCNCCC1C2` (single isomer, unassigned; (-)) [listing 2 of 2 here]: the inhibition constant Ki in experiment [5] turned out to be 196 nM; in [6], 980 nM.

Regarding `Cc1ccccc1-c1cccc2c1N1CCNCCC1C2` (stereo in doubt; (-)) [listing 1 of 2 here], the Ki worked out at 39 nM in experiment [5] and 136 nM in experiment [6].

In the case of `Cc1ccccc1-c1cccc2c1N1CCNCCC1C2` (stereo in doubt; (+)) [listing 1 of 2 here], in [7], the Selectivity ratio came to 6.37.

Take `Fc1ccccc1-c1cc(Cl)cc2c1N1CCNCCC1C2` (configuration not stated): the inhibition constant Ki in experiment [5] worked out at 223 nM; in experiment [6], 141 nM. For the same compound, the Selectivity ratio in experiment [7] is 0.63.

As to `CCOc1ccccc1-c1cc(Cl)cc2c1N1CCNCCC1C2` (single isomer, unassigned; (+)) [listing 1 of 2 here], the inhibition constant Ki in experiment [5] amounted to 32 nM; in experiment [6] it was 116 nM.

Regarding `FC(F)(F)c1ccccc1-c1cccc2c1N1CCNCCC1C2` (single isomer, unassigned; (-)) [listing 1 of 2 here], the Selectivity ratio in experiment [7] was found to be 3.21.

`FC(F)(F)c1ccccc1-c1cccc2c1N1CCNCCC1C2` (single isomer, unassigned; (+)) [listing 1 of 2 here]: the Selectivity ratio in [7] came to 1.81.

For the compound `CCOc1cccc(-c2cc(Cl)cc3c2N2CCNCCC2C3)c1` (configuration not stated), the Ki in experiment [5] stood at 472 nM; in experiment [6] it was 233 nM. In addition, the Selectivity ratio in experiment [7] is 0.49.

As for `Cc1ccccc1-c1cccc2c1N1CCNCCC1C2` (stereo in doubt; (+)) [listing 2 of 2 here], the inhibition constant Ki in experiment [5] was determined as 30 nM; in experiment [6], 191 nM.

For `Clc1c2n(c3ccccc13)CCNCC2`, the Ki in experiment [5] was 4.7 nM; in experiment [6] it was 6.5 nM. In addition, the Selectivity ratio in experiment [7] turned out to be 1.4.

For the compound `CCOc1ccccc1-c1cccc2c1N1CCNCCC1C2` (stereo in doubt; 20a), the Ki in [5] stood at 110 nM; in experiment [6] it was 440 nM.

Consider `NC(=O)C(=O)c1c2n(c3ccccc13)CCNCC2`, for which the inhibition constant (Ki) was found to be 136 nM in experiment [5] and 316 nM in experiment [6]. Also, the Selectivity ratio in experiment [7] is 2.3.

`O=Cc1c2n(c3ccccc13)CCNCC2`: the Ki in [5] is 12 nM; in experiment [6] it was 29 nM. In addition, the Selectivity ratio in [7] is 2.4.

Take `CCOc1ccccc1-c1cc(Cl)cc2c1N1CCNCCC1C2` (stereo in doubt) [listing 2 of 2 here]: the Selectivity ratio in [7] turned out to be 1.99.

Regarding `CCOc1ccccc1-c1cc(Cl)cc2c1N1CCNCCC1C2` (stereo in doubt; 22a), the inhibition constant (Ki) in experiment [5] worked out at 54 nM; in experiment [6] it was 218 nM.

For `CN1CCc2cc3ccccc3n2CC1`, in experiment [8], the Intrinsic efficacy stood at 49%. Moreover, the Ki in experiment [5] was found to be 13 nM; in experiment [6], 28 nM.

On to `FC(F)(F)c1ccccc1-c1cccc2c1N1CCNCCC1C2` (single isomer, unassigned; (-)) [listing 2 of 2 here], for which the inhibition constant (Ki) in experiment [5] worked out at 14 nM; in [6], 45 nM.

As to `FC(F)(F)c1ccccc1-c1cccc2c1N1CCNCCC1C2` (single isomer, unassigned; (+)) [listing 2 of 2 here], the Ki was found to be 59 nM in experiment [5] and 107 nM in [6].

With `CCOc1ccccc1-c1cccc2c1N1CCNCCC1C2` (single isomer, unassigned; (+)) [listing 2 of 2 here], the Selectivity ratio in experiment [7] amounted to 4.45.

Turning to `Clc1cc2c(c(-c3ccccc3Cl)c1)N1CCNCCC1C2` (configuration not stated), the inhibition constant Ki in experiment [5] turned out to be 57 nM; in experiment [6] it was 102 nM. The Selectivity ratio in experiment [7] came to 1.79.

As for `CCOc1ccccc1-c1cc(Cl)cc2c1N1CCNCCC1C2` (single isomer, unassigned; (+)) [listing 2 of 2 here], the Selectivity ratio in experiment [7] was 3.63.

On to `O=C(c1c2n(c3ccccc13)CCNCC2)C(F)(F)F`, for which the Ki in experiment [5] worked out at 54 nM; in experiment [6], 40 nM. The Selectivity ratio in experiment [7] is 0.7.

Turning to `Clc1ccc(-c2cc(Cl)cc3c2N2CCNCCC2C3)c(Cl)c1` (configuration not stated), the Ki is 386 nM in experiment [5] and 426 nM in experiment [6]. For the same compound, in experiment [7], the Selectivity ratio was 1.1.

In the case of `NC(=O)c1c2n(c3ccccc13)CCNCC2`, the inhibition constant Ki is 74 nM in experiment [5] and 46 nM in experiment [6]. In addition, the Selectivity ratio in experiment [7] came to 0.6.

Consider `c1ccc2c(c1)CC1CCNCCN21` (configuration not stated), for which the Ki in [5] is 721 nM; in [6] it was 805 nM.

`Cc1c2n(c3ccccc13)CCNCC2`: the Ki in experiment [5] was 6.8 nM; in experiment [6], 12 nM. Moreover, the Selectivity ratio in [7] stood at 1.8.

Compound `Cn1c2c(c3ccccc31)CCNCC2` [PNU-22394] yielded an Intrinsic efficacy in experiment [8] of 83%. The inhibition constant Ki in [5] and in experiment [6] was 19 nM in each case.

As to `c1cc2c3c(c1)c1c(n3CCO2)CCNCC1`, the Intrinsic efficacy in experiment [8] was 105%. The Ki in [5] amounted to 4.3 nM; in experiment [6], 4.1 nM.

For `Cc1ccccc1-c1cc(Cl)cc2c1N1CCNCCC1C2` (configuration not stated), the Ki in experiment [5] worked out at 43 nM; in experiment [6], 88 nM. Also, the Selectivity ratio in [7] came to 2.05.

As to `Cc1ccccc1-c1cccc2c1N1CCNCCC1C2` (stereo in doubt; (-)) [listing 2 of 2 here], the Selectivity ratio in [7] was 3.45.

As to `CCOc1ccccc1-c1ccc2c(c1)N1CCNCCC1C2` (configuration not stated), the inhibition constant (Ki) in experiment [5] is 932 nM; in [6], 1580 nM.

As to `N#Cc1c2n(c3ccccc13)CCNCC2`, the Ki was found to be 85 nM in experiment [5] and 83 nM in [6]. The Selectivity ratio in experiment [7] turned out to be 1.

On to `Clc1ccc(Cl)c(-c2cc(Cl)cc3c2N2CCNCCC2C3)c1` (configuration not stated), for which the results for the Ki in experiment [5] and in [6] were 160 nM and 70 nM, respectively. Further, in [7], the Selectivity ratio came to 0.44.

As for `Fc1ccc(-c2cc(Cl)cc3c2N2CCNCCC2C3)cc1` (configuration not stated), the values for the inhibition constant (Ki) in experiment [5] and in [6] were 310 nM and 146 nM, respectively. The Selectivity ratio in [7] amounted to 0.47.

Take `CCOc1ccccc1-c1ccc2c(c1)CC1CCNCCN21` (configuration not stated): the Ki in [5] was 4810 nM; in [6], over 10000 nM.

On to `CCOc1ccccc1-c1cc(Cl)cc2cc3n(c12)CCNCC3`, for which the Ki in experiment [5] is 112 nM; in [6], 32 nM.

As to `CCCN1CCc2cc3ccccc3n2CC1`, the Ki in experiment [5] came to 64 nM; in experiment [6], 56 nM.

`C[C@H](N)Cn1ccc2ccc(F)cc21`: affinity in experiment [9] was put at a Ki of 4 nM.

For the compound `c1ccc2c(c1)cc1n2CCNCC1`, the Intrinsic efficacy in experiment [8] was 80%. Besides, the Ki worked out at 4.8 nM in experiment [5] and 18 nM in [6]. Moreover, the Latency is given as 87.6 s in experiment [10], 12.8 s in experiment [11], 27 s in [12] and 102 s in experiment [3]. For the same compound, the Selectivity ratio in experiment [7] was 3.8.
